Reference: publication PMC8861431, “Tissue Pharmacokinetic Properties and Bystander Potential of Hypoxia-Activated Prodrug CP-506 by Agent-Based Modelling” (Frontiers in Pharmacology, 2022)
Like-named read-outs stand apart in the source and are kept apart here.

Experiments:
[1] = system: HCT-116 cells (PORko-G, HCT-116 WT, POR-R); test: Cellular metabolism assay (LC-MS/MS of reduced metabolites); type: in vitro ADME, human; details: anoxic cultures
Method: Aerobic and anoxic conditions were achieved as described above. Cells (5 x 10^5 per well) were seeded with 350 µl medium in duplicate into 24-well plates and left to attach for 2 h in a humidified 37°C incubator. A working solution of CP-506 was prepared in culture medium to achieve a 100 µM concentration in each well after the addition of a 500 µl volume. Plates were exposed to drug for 1 h in a humidified 37°C incubator. Metabolism was then halted by the addition of two-volumes of ice-cold acetonitrile containing 2 µM of internal standard for each analyte. Samples were stored at −80°C until LC-MS/MS analysis.
(§1) The LC system for tandem MS consisted of an Agilent 1200 autosampler (4°C) and binary pump, a 3.0 × 50 mm, 1.8-micron Zorbax SB-C18 column (Agilent; PN: 827975-302) and 2.1 × 7 mm guard column (Alltech, IL) maintained at 35°C, at a pressure of <400 bar and flow rate of 0.3 ml/min. The mobile phase comprised a gradient of 0.01% formic acid in 80% acetonitrile - 20% water, v/v (solvent A), and 0.01% formic acid in water (solvent B). Initial mobile phase composition was 20% solvent A and 80% solvent B, increasing to 60% A (0–3 min) then 80% A (3–5.45 min), returning to initial conditions (5.5–6 min). Post-run time was 1 min, and the total run time was […]. Mass spectrometric detection was carried out using an Agilent 6410 triple quadrupole mass spectrometer equipped with a multimode ionization (MMI) source. The mass spectrometer was operated in electrospray positive ionization mode using multiple reaction monitoring (MRM), with Q1 & Q3 set to unit resolution ([…]). The electrospray ionization parameters, optimized for the parent molecular ion ([M+H]+) abundance were: drying gas temperature 325°C, vaporiser temperature 150°C, drying gas flow 5 L/min, nebuliser pressure 50 psi, capillary voltage 1.8 kV, Delta EMV 300 V. Ultra-pure nitrogen was used as collision gas. The divert valve feature of the Agilent 6410 triple quadrupole mass spectrometer was utilised to prevent the eluate from entering the ionisation source chamber during the first 0.5 min of each run. For CP-506 samples, positively charged ions representing the [M+H]+ for CP-506 and CP-506-D8 were collisionally dissociated to form specific product ions which were monitored in MS2 (unit resolution). The MRM transition, ionization mode, collision energy, dwell time, fragmentor voltage and retention time for all compounds is provided in Supplementary Table S2. Agilent MassHunter software (v.4.04.00) was used for data acquisition and chromatographic peak integration.

[2] = Media stability studies (stirred medium without serum, 37°C); type: physicochemical; details: for half-life at 100 µM: 37°C, aerobic, medium without serum/cells, read-out: Half-life (T1/2) in stirred medium
Method: The stability of each compound was determined in stirred medium (without serum) maintained under aerobic conditions by the constant supply of a humidified gas mixture comprised of 21% O2, 5% CO2 with balance N2. Vials were spiked with 100 µM of the relevant compound, and samples were collected using a positive displacement pipettor for up to 3 h thereafter. The collected samples were then treated with two-volumes of ice-cold acetonitrile containing 2 µM of the relevant deuterated (D8) internal standard and stored at −80°C until LC-MS/MS analysis.
as §1

HCT-116 cell line panel = test: Anti-proliferative IC50 assay of authentic CP-506 metabolites; type: cell-based, human
Method: Cells (700–1,000 per well) were seeded with 100 µl culture medium into 96-well plates and left to attach for 2 h in a humidified 37°C incubator. Compounds were prepared in culture medium and serially diluted (1:3) in the well volume. […] Aerobic experiments were performed under standard tissue culture conditions (21% O2), and the anoxic experiments were performed in parallel in a 5% H2/Pd catalyst anaerobic chamber (Shellab Bactron, Sheldon manufacturing Inc., Cornelius, OR) using pre-equilibrated media and plasticware. All anoxia experiments were conducted using a catalyst-scrubbed anaerobic chamber, unless otherwise specified, with gas oxygen measurements of <1 ppm O2. Cells were then washed three times and left to grow for 96 h before cell density determination using a sulforhodamine B (SRB) assay ([Vichai and Kirtikara, 2006]). To this end, the cells were fixed by layering 50 µl of trichloroacetic acid (40% w/v in MilliQ water) on top of the culture media (150 µl) in each well for 1 h at 4°C. Plates were rinsed under running tap water and stained with 50 µl of SRB (0.4% w/v in MilliQ water containing 1% v/v acetic acid) for 30 min at room temperature. Plates were rapidly destained by rinsing three times in tap water containing 1% (v/v) acetic acid. The stain was solubilized by adding 100 µl of 10 mM unbuffered Tris base to each well with gentle rocking for 1 h. Plates were read on a Biotek ELx808 Absorbance Microplate Reader at 490 nm using KC4 software. The IC50 value (concentration required to reduce staining to 50% of the untreated control on the same plate) for each compound was determined by interpolation using a 4-parameter logistic regression model.
FIGURE 3 Hypoxia-dependent metabolism of CP-506 leads to the formation of a multitude of short-lived species with variable cytotoxicity. (A) Bioreductive metabolism of CP-506 under normoxic (21% O2) and anoxic conditions (<1 ppm O2). Concentrations of CP-506 and its metabolites (CP-506H, CP-506M and CP-506M-Cl2) were quantified by mass spectrometry with reference to the appropriate deuterated (D8) internal standard. Values are the mean ± SEM for three independent experiments. (B) Stability of CP-506 metabolites in culture medium (without cells) at 37°C. Concentrations were determined by mass spectrometry using standard curves generated from authenticated stocks. […] IC50 values are the mean ± SEM of duplicate wells for three independent experiments. T-tests were performed using GraphPad Prism 8 (ns, p-value > 0.05; *, p-value ≤ 0.05; **, p-value ≤ 0.01; ***, p-value ≤ 0.001).

[3] = ref Guise et al., 2010; cited from earlier work
[4] = ref Hicks et al., 2007; Foehrenbacher et al., 2013a, 2013b; cited from earlier work
POR-R MCLs = details: established value for the internal standard; ref Wilson et al., 2004; cited from earlier work
[5] = stirred medium without serum or cells

## CCN1CCN(C(=O)c2cc(N(CCO)CCO)c(S(C)(=O)=O)cc2NO)CC1 [CP-506H-(OH)2, (5-(Bis(2-hydroxyethyl)amino)-2-(hydroxyamino)-4-(methylsulfonyl)phenyl)(4-ethylpiperazin-1-yl)methanone]
[1]
  Detection of metabolite in anoxic cultures: undetectable
[2]; [5]
  half-life at 100 µM: 0.0417 h

## CCN1CCN(C(=O)c2cc(N(CCCl)CCCl)c(S(C)(=O)=O)cc2NO)CC1 [CP-506H-Cl2, (5-(Bis(2-chloroethyl)amino)-2-(hydroxyamino)-4-(methylsulfonyl)phenyl)(4-ethylpiperazin-1-yl)methanone]
HCT-116 cell line panel; direct exposure of monolayers to authentic metabolite, Figure 3C: 5 days, normoxic 21% O2
  Anti-proliferative IC50 of metabolite: limited potency
[2]
  half-life at 100 µM: 2.35 h
[2]; stirred medium, Figure 3B
  Fold longer half-life than CP-506H or CP-506M: ≥ 10 fold

## CCN1CCN(C(=O)c2cc(N(CCO)CCO)c(S(C)(=O)=O)cc2N)CC1 [CP-506M-(OH)2, (2-Amino-5-(bis(2-hydroxyethyl)amino)-4-(methylsulfonyl)phenyl)(4-ethylpiperazin-1-yl)methanone]
HCT-116 cell line panel; Figure 3C
  Concentration up to which the cell line panel was not sensitive: > 100 µM
[2]; [5]
  half-life at 100 µM: 6.56 h

## CS(=O)(=O)OCCN(CCBr)c1c(C(=O)NCCO)cc([N+](=O)[O-])cc1[N+](=O)[O-] [PR-104A, reference compound]
[3]
  Safe human exposure levels as percent of those observed in mice: 10–29%
[4]
  KO2 (O2 concentration of half-maximal activation): 0.126 µM O2

## N[14C](N)=O [[^14C]-urea]
POR-R MCLs
  DMCL in HCT-116 MCLs: 3.67 x 10^−7 cm^2 s^−1
